Experiments:
MV4-11 cells = assay: MV4-11 cellular proliferative assay, Assay Format A (CellTiter-Glo, 120 h); type: cell-based; settings: Homo sapiens, Assay format A, 120 h, read-out: IC50 (MV4-11 cellular proliferative assay)
Protocol: An MV4-11 proliferation assay was used to test the ability of compounds to reduce cell viability. MV4-11 cells (ATCC #CRL9591) were grown in IMDM medium (11510596, Gibco) supplemented with 10% fetal bovine serum (F7524, Gibco) and 1% Penicillin/Streptomycin (15140-122, Gibco) at 37° C. with 5% CO2. Cells were seeded in 384-well Elplasia plates (4447, Corning) at a density of 50 cells/well and treated with vehicle (DMSO) or compounds (10 serial semi-log dilutions, 30 μM as top concentration).
After 120 hours of treatment, cells were incubated for 10 min at RT with the CellTiter-Glo (CTG) reagent (G7571, Promega). Measurement of the luminescence signal was performed on a microplate reader (Ensight, PerkinElmer). CTG reagent measures the amount of ATP, which is directly proportional to the number of cells, to determine the number of viable cells in culture.
The data were analysed as follows:
[formula] • where x is the measured raw signal value of a well, (cr) is the median of the measured signal values for the Central Reference (DMSO) wells on a plate, (sr) is the median of the measured signal values for the Scale Reference (reference compound) wells on a plate.
[formula] • where the experimental set-up assumes the Hill parameters in certain ranges: S0~Central Reference (CR) from normalization (=Bottom), Sinf~Scale Reference (SR) from normalization (=Top), nHill ~1, AC50~within the measured concentration range.

MLLT1 = molecular target: T1, MLLT1 (Homo sapiens, UniProt Q03111); assay: MLLT1 degradation assay in MV4-11 cells (JESS, 24 h); type: cell-based; parameters: endogenous in cells; host or cells: MV4-11 (ATCC CRL-9591); settings: vs DMSO control
T1 sequence (Q03111 1-559): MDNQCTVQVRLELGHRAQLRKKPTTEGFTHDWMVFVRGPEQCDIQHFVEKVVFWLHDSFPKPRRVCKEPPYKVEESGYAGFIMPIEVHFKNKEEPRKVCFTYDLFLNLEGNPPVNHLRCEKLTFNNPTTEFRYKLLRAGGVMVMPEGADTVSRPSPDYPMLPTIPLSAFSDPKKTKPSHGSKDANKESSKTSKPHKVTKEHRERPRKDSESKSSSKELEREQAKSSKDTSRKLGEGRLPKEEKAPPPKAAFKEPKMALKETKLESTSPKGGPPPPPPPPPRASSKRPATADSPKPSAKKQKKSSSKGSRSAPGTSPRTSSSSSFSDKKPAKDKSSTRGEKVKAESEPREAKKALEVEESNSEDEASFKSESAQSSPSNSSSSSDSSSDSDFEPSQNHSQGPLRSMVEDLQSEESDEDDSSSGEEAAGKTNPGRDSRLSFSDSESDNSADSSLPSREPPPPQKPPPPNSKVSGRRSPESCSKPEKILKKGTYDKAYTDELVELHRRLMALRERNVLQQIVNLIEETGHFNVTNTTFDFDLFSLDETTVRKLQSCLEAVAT
Protocol: MLLT1 degradation efficacy of compounds was tested in an automated chemiluminescent detection system (JESS, Cat #004-650). MV4-11 (#CRL-9591, ATCC) cells were seeded at a density of 1.2 million cells/well in a non-treated 6-well cell culture plate in 2.4 mL of complete medium (IMDM+10% FBS+1× Penicillin-Streptomycin). 10 mM DMSO stocks were prepared, and cells were treated with three concentrations of test compounds viz. 1000, 100 and 10 nM at a final DMSO concentration of 0.1% and incubated for 24 h at 37° C., 5% CO2. Post incubation, cells were centrifuged, washed with HBSS and lysed in 70 μL of RIPA buffer supplemented with Protease inhibitors (sc-24948; Santa Cruz). Subsequently, protein estimation was done using BCA protein assay kit (23225; Pierce). 4 ug protein lysate (4 uL of 1 ug/uL lysate) was loaded into each well of the JESS cartridge (SM-W001; Bio-techne) and the JESS run was performed using 1:900 dilution of anti-human MLLT1 antibody (14893; Cell signaling technology) and 1:1200 dilution of anti-human GAPDH antibody (2118; Cell signaling technology) with anti-rabbit secondary detection module (DM-001; Bio-Techne). Post run, data were analysed using “Compass for SW” software for chemiluminescent detection. The peak area for each band was used for the calculation of MLLT1 degradation with respect to DMSO control. Data is shown as “MLLT1% degradation”. • Category A: A≥75% degradation • Category B: 50%≤B<75% degradation • Category C: 25%≤C<50% degradation • Category D: D<25% degradation

In the case of `Cc1nn(C2CCN(CCCNc3cccc4c3C(=O)N(C3CCC(=O)NC3=O)C4=O)CC2)c2cc(C(=O)Nc3cc4[nH]c([C@H]5CCCN5C)cc4cn3)ccc12` (stereo partly drawn) [Example 7, 1-[1-(3-{[2-(2,6-dioxopiperidin-3-yl)-1,3-dioxoisoindol-4-yl]amino}propyl)piperidin-4-yl]-3-methyl-N-{2-[(2R)-1-methylpyrrolidin-2-yl]-1H-pyrrolo[3,2-c]pyridin-6-yl}indazole-6-carboxamide], the IC50 (MV4-11 cells) is reported as under 100 nM.

Work on `Cc1nn(CCCCCCCCOc2ccc3c(c2)C(=O)N(C2CCC(=O)NC2=O)C3=O)c2cc(C(=O)Nc3cc4[nH]c([C@H]5CCCN5C)cc4cn3)ccc12` (stereo partly drawn) [Example 8, 1-(8-{[2-(2,6-dioxopiperidin-3-yl)-1,3-dioxoisoindol-5-yl]oxy}octyl)-3-methyl-N-{2-[(2R)-1-methylpyrrolidin-2-yl]-1H-pyrrolo[3,2-c]pyridin-6-yl}indazole-6-carboxamide] yielded an IC50 (MV4-11 cells) of under 100 nM.

Work on `Cc1nn(CCCCCCCCOc2cccc3c2C(=O)N(C2CCC(=O)NC2=O)C3=O)c2cc(C(=O)Nc3cc4[nH]c([C@H]5CCCN5C)cc4cn3)ccc12` (stereo partly drawn) [Example 12, 1-(8-((2-(2,6-dioxopiperidin-3-yl)-1,3-dioxoisoindolin-4-yl)oxy)octyl)-3-methyl-N-(2-((R)-1-methylpyrrolidin-2-yl)-1H-pyrrolo[3,2-c]pyridin-6-yl)-1H-indazole-6-carboxamide] yielded an IC50 (MV4-11 cells) of under 100 nM.

With `Cc1nn(CCCCCCCC#Cc2ccnc(C(=O)N[C@H]3CCC(=O)NC3=O)c2)c2cc(C(=O)Nc3cc4[nH]c([C@H]5CCCN5C)cc4cn3)ccc12` [Example 43, 1-(9-(2-(((S)-2,6-dioxopiperidin-3-yl)carbamoyl)pyridin-4-yl)non-8-yn-1-yl)-3-methyl-N-(2-((R)-1-methylpyrrolidin-2-yl)-1H-pyrrolo[3,2-c]pyridin-6-yl)-1H-indazole-6-carboxamide] the “MLLT1% Degradation @ 0.01 μM” value (MLLT1) was “C (Category C: 25%≤C<50% degradation)”, the “MLLT1% Degradation @ 0.1 μM” value (MLLT1) was “B (Category B: 50%≤B<75% degradation)” and the “MLLT1% Degradation @ 1 μM” value (MLLT1) was “A (Category A: A≥75% degradation)”.

For `Cc1nn(CCCCCOCC#Cc2cccc3c2CN(C2CCC(=O)NC2=O)C3=O)c2cc(C(=O)Nc3cc4[nH]c([C@H]5CCCN5C)cc4cn3)ccc12` (stereo partly drawn) [Example 49, 1-(5-((3-(2-(2,6-dioxopiperidin-3-yl)-1-oxoisoindolin-4-yl)prop-2-yn-1-yl)oxy)pentyl)-3-methyl-N-(2-((R)-1-methylpyrrolidin-2-yl)-1H-pyrrolo[3,2-c]pyridin-6-yl)-1H-indazole-6-carboxamide], the “MLLT1% Degradation @ 0.01 μM” value (MLLT1) was “A (Category A: A≥75% degradation)”, the “MLLT1% Degradation @ 0.1 μM” value (MLLT1) was “A (Category A: A≥75% degradation)” and the “MLLT1% Degradation @ 1 μM” value (MLLT1) was “A (Category A: A≥75% degradation)”.

With `Cc1nn(CCOCCCCC#Cc2cccc3c2CN(C2CCC(=O)NC2=O)C3=O)c2cc(C(=O)Nc3cc4[nH]c([C@H]5CCCN5C)cc4cn3)ccc12` (stereo partly drawn) [Example 50, 1-(2-((6-(2-(2,6-dioxopiperidin-3-yl)-1-oxoisoindolin-4-yl)hex-5-yn-1-yl)oxy)ethyl)-3-methyl-N-(2-((R)-1-methylpyrrolidin-2-yl)-1H-pyrrolo[3,2-c]pyridin-6-yl)-1H-indazole-6-carboxamide] the “MLLT1% Degradation @ 0.01 μM” value (MLLT1) was “A (Category A: A≥75% degradation)”, the “MLLT1% Degradation @ 0.1 μM” value (MLLT1) was “A (Category A: A≥75% degradation)” and the “MLLT1% Degradation @ 1 μM” value (MLLT1) was “A (Category A: A≥75% degradation)”.

For `Cc1nn(CCCCCCCC#Cc2cccc(C(=O)N[C@H]3CCC(=O)NC3=O)c2F)c2cc(C(=O)Nc3cc4[nH]c([C@H]5CCCN5C)cc4cn3)ccc12` [Example 51, 1-(9-(3-(((S)-2,6-dioxopiperidin-3-yl)carbamoyl)-2-fluorophenyl)non-8-yn-1-yl)-3-methyl-N-(2-((R)-1-methylpyrrolidin-2-yl)-1H-pyrrolo[3,2-c]pyridin-6-yl)-1H-indazole-6-carboxamide], the “MLLT1% Degradation @ 0.01 μM” value (MLLT1) was “C (Category C: 25%≤C<50% degradation)”, the “MLLT1% Degradation @ 0.1 μM” value (MLLT1) was “B (Category B: 50%≤B<75% degradation)” and the “MLLT1% Degradation @ 1 μM” value (MLLT1) was “A (Category A: A≥75% degradation)”.

`Cc1nn(CCCCCCCC#Cc2cc3c(cc2F)C(=O)N(C2CCC(=O)NC2=O)C3)c2cc(C(=O)Nc3cc4[nH]c([C@H]5CCCN5C)cc4cn3)ccc12` (stereo partly drawn) [Example 60, 1-(9-(2-(2,6-dioxopiperidin-3-yl)-6-fluoro-1-oxoisoindolin-5-yl)non-8-yn-1-yl)-3-methyl-N-(2-((R)-1-methylpyrrolidin-2-yl)-1H-pyrrolo[3,2-c]pyridin-6-yl)-1H-indazole-6-carboxamide] was tested, and the “MLLT1% Degradation @ 0.01 μM” value (MLLT1) was “C (Category C: 25%≤C<50% degradation)”, the “MLLT1% Degradation @ 0.1 μM” value (MLLT1) was “B (Category B: 50%≤B<75% degradation)” and the “MLLT1% Degradation @ 1 μM” value (MLLT1) was “A (Category A: A≥75% degradation)”.

`Cc1nn(CCCCCCCC#Cc2cccc(C3CCC(=O)NC3=O)n2)c2cc(C(=O)Nc3cc4[nH]c([C@H]5CCCN5C)cc4cn3)ccc12` (stereo partly drawn) [Example 62, 1-(9-(6-(2,6-dioxopiperidin-3-yl)pyridin-2-yl)non-8-yn-1-yl)-3-methyl-N-(2-((R)-1-methylpyrrolidin-2-yl)-1H-pyrrolo [3,2-c]pyridin-6-yl)-1H-indazole-6-carboxamide] was tested, and the “MLLT1% Degradation @ 0.01 μM” value (MLLT1) was “B (Category B: 50%≤B<75% degradation)”, the “MLLT1% Degradation @ 0.1 μM” value (MLLT1) was “B (Category B: 50%≤B<75% degradation)” and the “MLLT1% Degradation @ 1 μM” value (MLLT1) was “A (Category A: A≥75% degradation)”.

With `Cc1nn(CCCCCCCC#Cc2cccc(N3CCC(=O)NC3=O)c2F)c2cc(C(=O)Nc3cc4[nH]c([C@H]5CCCN5C)cc4cn3)ccc12` [Example 63, (R)-1-(9-(3-(2,4-dioxotetrahydropyrimidin-1 (2H)-yl)-2-fluorophenyl)non-8-yn-1-yl)-3-methyl-N-(2-(1-methylpyrrolidin-2-yl)-1H-pyrrolo [3,2-c]pyridin-6-yl)-1H-indazole-6-carboxamide] the “MLLT1% Degradation @ 0.01 μM” value (MLLT1) was “D (Category D: D<25% degradation)”, the “MLLT1% Degradation @ 0.1 μM” value (MLLT1) was “B (Category B: 50%≤B<75% degradation)” and the “MLLT1% Degradation @ 1 μM” value (MLLT1) was “A (Category A: A≥75% degradation)”.

With `Cc1nn(CCCCCCCC#Cc2cc3c(cc2F)c(N2CCC(=O)NC2=O)nn3C)c2cc(C(=O)Nc3cc4[nH]c([C@H]5CCCN5C)cc4cn3)ccc12` [Example 65, (R)-1-(9-(3-(2,4-dioxotetrahydropyrimidin-1 (2H)-yl)-5-fluoro-1-methyl-1H-indazol-6-yl)non-8-yn-1-yl)-3-methyl-N-(2-(1-methylpyrrolidin-2-yl)-1H-pyrrolo[3,2-c]pyridin-6-yl)-1H-indazole-6-carboxamide] the “MLLT1% Degradation @ 0.01 μM” value (MLLT1) was “C (Category C: 25%≤C<50% degradation)”, the “MLLT1% Degradation @ 0.1 μM” value (MLLT1) was “B (Category B: 50%≤B<75% degradation)” and the “MLLT1% Degradation @ 1 μM” value (MLLT1) was “A (Category A: A≥75% degradation)”.

In the case of `Cc1nn(CCCCCCC2CCN(c3cccc(C(=O)N[C@H]4CCC(=O)NC4=O)n3)CC2)c2cc(C(=O)Nc3cc4[nH]c([C@H]5CCCN5C)cc4cn3)ccc12` [Example 73, 1-(6-(1-(6-(((S)-2,6-dioxopiperidin-3-yl)carbamoyl)pyridin-2-yl)piperidin-4-yl)hexyl)-3-methyl-N-(2-((R)-1-methylpyrrolidin-2-yl)-1H-pyrrolo[3,2-c]pyridin-6-yl)-1H-indazole-6-carboxamide], the “MLLT1% Degradation @ 0.01 μM” value (MLLT1) is reported as “B (Category B: 50%≤B<75% degradation)”, the “MLLT1% Degradation @ 0.1 μM” value (MLLT1) is reported as “A (Category A: A≥75% degradation)” and the “MLLT1% Degradation @ 1 μM” value (MLLT1) is reported as “A (Category A: A≥75% degradation)”.

Reference: patent US20260199484A1, “PROTAC DEGRADERS OF MLLT1 AND/OR MLLT3” (DARK BLUE THERAPEUTICS LTD, priority 2024, published 2026)
